Measured values as given in ChEMBL document CHEMBL1157923, “Probing the cannabinoid CB1/CB2 receptor subtype selectivity limits of 1,2-diarylimidazole-4-carboxamides by fine-tuning their 5-substitution pattern” (Bioorg Med Chem Lett, 2010).
pKi: −log10 of the molar value.

Columns and labels:
Homo sapiens = species: Homo sapiens; experiment: Selectivity ratio Ki for human CB2 receptor to Ki for human CB1 receptor
Cannabinoid receptor 1 = Cannabinoid receptor 1 (Homo sapiens, UniProt P21554); experiment: biochemical; assay type: cell-based, CHO
Cannabinoid receptor 2 = Cannabinoid receptor 2 (Homo sapiens, UniProt P34972); experiment: Displacement of [3H]CP-55940 from human CB2 receptor expressed in CHO cells; assay type: cell-based
Rattus norvegicus = experiment: Inhibition of CP-55940-induced hypotension in po dosed anaesthetized rat; assay type: functional; conditions: read-out: ID50 (the source's name)
LLC-PK1 = experiment: Efflux ratio of permeability in pig LLC-PK1 cells expressing human MDR1 assessed as ratio of bottom to top transport over top to bottom transport; assay type: ADME, cell-based, Sus scrofa
[1] = Lipophilicity log P of compound at pH 7.4 by RP-HPLC analysis; assay type: physicochemical; conditions: buffer
[2] = Terminal half life in non obese human; assay type: ADME, organism-based; conditions: in vivo, read-out: beta t1/2 (converted)

Cannabinoid receptor 2, sequence (P34972 whole entry): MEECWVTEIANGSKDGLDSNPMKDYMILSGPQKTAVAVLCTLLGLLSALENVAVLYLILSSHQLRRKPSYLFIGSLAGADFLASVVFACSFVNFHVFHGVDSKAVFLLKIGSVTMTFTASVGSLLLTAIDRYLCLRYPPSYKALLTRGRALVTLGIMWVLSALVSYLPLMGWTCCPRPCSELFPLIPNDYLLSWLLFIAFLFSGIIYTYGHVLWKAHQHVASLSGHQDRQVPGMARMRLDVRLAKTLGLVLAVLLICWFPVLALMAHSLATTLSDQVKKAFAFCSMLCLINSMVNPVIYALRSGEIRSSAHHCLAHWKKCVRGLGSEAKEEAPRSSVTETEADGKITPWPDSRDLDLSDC
Cannabinoid receptor 1, sequence (P21554 whole entry): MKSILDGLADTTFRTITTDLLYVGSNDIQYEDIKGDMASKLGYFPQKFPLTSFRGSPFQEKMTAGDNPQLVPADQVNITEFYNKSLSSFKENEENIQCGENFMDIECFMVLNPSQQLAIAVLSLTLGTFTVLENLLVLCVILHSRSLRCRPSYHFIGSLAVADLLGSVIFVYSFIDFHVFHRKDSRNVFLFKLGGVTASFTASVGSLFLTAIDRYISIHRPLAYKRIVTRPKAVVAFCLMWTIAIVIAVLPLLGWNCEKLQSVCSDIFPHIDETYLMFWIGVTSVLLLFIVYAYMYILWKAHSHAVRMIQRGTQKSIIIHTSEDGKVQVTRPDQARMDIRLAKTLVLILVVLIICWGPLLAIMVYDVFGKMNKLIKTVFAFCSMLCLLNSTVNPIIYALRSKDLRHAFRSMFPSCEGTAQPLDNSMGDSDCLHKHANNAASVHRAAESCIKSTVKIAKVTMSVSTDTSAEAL

Row | Ratio IC50 (Homo sapiens) | Structure (SMILES) | pKi (Cannabinoid receptor 1) | pKi (Cannabinoid receptor 2) | also measured
1 | 31 | CCc1c(C(=O)NN2CCCCC2)nc(-c2ccc(Cl)cc2Cl)n1-c1ccc(Cl)cc1 | – | – | –
2 | – | C[S+]([O-])c1c(C(=O)NN2CCCCC2)nc(-c2ccc(Cl)cc2Cl)n1-c1ccc(Cl)cc1 (stereo in doubt; 12) [listing 1 of 2 here] | 7.31 | – | pKi (Cannabinoid receptor 2; cho): < 6.00; ED50 (Rattus norvegicus): > 30 mg/kg; Ratio (LLC-PK1): 7.7; logP [1]: 3.7
3 | 181 | O=C(NN1CCCCC1)c1nc(-c2ccc(Cl)cc2Cl)n(-c2ccc(Cl)cc2)c1I | 8.00 | 5.74 | –
4 | 53 | N#Cc1c(C(=O)NN2CCCCC2)nc(-c2ccc(Cl)cc2Cl)n1-c1ccc(Cl)cc1 | – | – | –
5 | – | C[S+]([O-])c1c(C(=O)NN2CCCCC2)nc(-c2ccc(Cl)cc2Cl)n1-c1ccc(Cl)cc1 (single isomer, unassigned; (-)) [listing 1 of 2 here] | 7.70 | < 6.00 | –
6 | 27 | CSc1c(C(=O)NN2CCCCCC2)nc(-c2ccc(Cl)cc2Cl)n1-c1ccc(Cl)cc1 | 7.92 | 6.49 | –
7 | – | Cc1c(C(=O)NN2CCCCC2)nn(-c2ccc(Cl)cc2Cl)c1-c1ccc(Cl)cc1 [RIMONABANT] | – | – | half-life [2]: 144 h
8 | 14 | CSc1c(C(=O)NN2CCCCCC2)nn(-c2ccc(Cl)cc2Cl)c1-c1ccc(Cl)cc1 | 7.57 | 6.43 | –
9 | – | C[S+]([O-])c1c(C(=O)NN2CCCCC2)nc(-c2ccc(Cl)cc2Cl)n1-c1ccc(Cl)cc1 (single isomer, unassigned; (+)) [listing 1 of 2 here] | 7.89 | – | pKi (Cannabinoid receptor 2; cho): < 6.00
10 | > 112 | CSc1c(C(=O)NN2CCCC2)nc(-c2ccc(Cl)cc2Cl)n1-c1ccc(Cl)cc1 | 8.05 | – | –
11 | 221 | O=C(NN1CCCCC1)c1nc(-c2ccc(Cl)cc2Cl)n(-c2ccc(Cl)cc2)c1CO | 7.47 | 5.12 | –
12 | – | CSc1c(C(=O)NN2CCCCC2)nn(-c2ccc(Cl)cc2Cl)c1-c1ccc(Cl)cc1 | 7.89 | 6.09 | ED50 (Rattus norvegicus): 1.5 mg/kg
13 | 20 | Cc1c(C(=O)NN2CCCCC2)nc(-c2ccc(Cl)cc2Cl)n1-c1ccc(Cl)cc1 | – | – | –
14 | > 19 | CCSc1c(C(=O)NN2CCCCC2)nc(-c2ccc(Cl)cc2Cl)n1-c1ccc(Cl)cc1 | 7.29 | < 6.00 | –

Row | Structure (SMILES) | Ratio IC50 (Homo sapiens) | pKi (Cannabinoid receptor 1) | pKi (Cannabinoid receptor 2) | also measured
15 | CS(=O)(=O)c1c(C(=O)NN2CCCCC2)nc(-c2ccc(Cl)cc2Cl)n1-c1ccc(Cl)cc1 | > 840 | – | < 5.00 | ED50 (Rattus norvegicus): 29 mg/kg; Ratio (LLC-PK1): 6; logP [1]: 3.5
16 | CSc1c(C(=O)NN2CCCC2)nn(-c2ccc(Cl)cc2Cl)c1-c1ccc(Cl)cc1 | 211 | 8.52 | 6.20 | ED50 (Rattus norvegicus): 1.9 mg/kg; logP [1]: 4.7
17 | CSc1c(C(=O)NN2CCCCC2)nc(-c2ccc(Cl)cc2Cl)n1-c1ccc(Cl)cc1 | 88 | 7.91 | 5.97 | ED50 (Rattus norvegicus): 1.9 mg/kg; Ratio (LLC-PK1): 1.4; logP [1]: 4.8
18 | C[S+]([O-])c1c(C(=O)NN2CCCCC2)nn(-c2ccc(Cl)cc2Cl)c1-c1ccc(Cl)cc1 (stereo not drawn) | 20 | 7.70 | 6.40 | ED50 (Rattus norvegicus): > 30 mg/kg; Ratio (LLC-PK1): 8; logP [1]: 3.7
19 | C[S+]([O-])c1c(C(=O)NN2CCCCC2)nc(-c2ccc(Cl)cc2Cl)n1-c1ccc(Cl)cc1 (single isomer, unassigned; (-)) [listing 2 of 2 here] | > 50 | – | – | –
20 | C[S+]([O-])c1c(C(=O)NN2CCCCC2)nc(-c2ccc(Cl)cc2Cl)n1-c1ccc(Cl)cc1 (single isomer, unassigned; (+)) [listing 2 of 2 here] | > 77 | – | – | –
21 | C[S+]([O-])c1c(C(=O)NN2CCCCC2)nc(-c2ccc(Cl)cc2Cl)n1-c1ccc(Cl)cc1 (stereo in doubt; 12) [listing 2 of 2 here] | > 20 | – | – | –
